The target of one test is T1, full length human TPH1 (Homo sapiens, UniProt P17752).
T1 construct: To generate the enzyme, full length human TPH1 is cloned into the plasmid pET20b(+); made in house; host or cells: E. coli
T1 sequence (P17752 1-444): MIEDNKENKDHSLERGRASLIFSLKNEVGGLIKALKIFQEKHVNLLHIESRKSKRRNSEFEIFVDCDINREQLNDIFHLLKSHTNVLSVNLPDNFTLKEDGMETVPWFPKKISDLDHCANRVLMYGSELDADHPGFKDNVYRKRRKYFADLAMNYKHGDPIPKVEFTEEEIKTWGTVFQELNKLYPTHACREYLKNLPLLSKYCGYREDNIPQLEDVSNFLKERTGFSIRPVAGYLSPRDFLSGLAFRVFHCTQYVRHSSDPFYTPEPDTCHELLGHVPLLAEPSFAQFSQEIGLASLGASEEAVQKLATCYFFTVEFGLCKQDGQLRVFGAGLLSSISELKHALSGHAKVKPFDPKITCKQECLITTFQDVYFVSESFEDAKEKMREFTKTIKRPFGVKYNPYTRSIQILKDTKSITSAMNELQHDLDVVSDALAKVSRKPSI
The test can be described thus: Biochemical in vitro assay using fluorescence readout (TPH1 enzyme activity). As to conditions: Table 1, mean where determined several times. An outline of the steps:
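IC50 (mean of repeats) derived from 5-hydroxy-L-tryptophan fluorescence at 540 nm (300 nm excitation) relative to vehicle, after perchloric acid stop. Reaction: 60 min, 15° C., pH 7.6 Tris-HCl, 40 μM L-tryptophan, 100 μM 6-methyltetrahydropterine, DTT, catalase, with 40-80 nM purified full-length human TPH1 from E. coli.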
As usually defined, the IC50 is the concentration that gives 50% inhibition. `CC(C)(C)OC(=O)N1CCn2c(nc3c2C(c2ncc(C4CC4)cc2F)N(C(=O)COc2ccc(N4CCOCC4)nc2Cl)CC3)C1` (stereo not drawn) [Example 5.4.1, tert-butyl 2-(2-((2-chloro-6-morpholinopyridin-3-yl)oxy)acetyl)-1-(5-cyclopropyl-3-fluoropyridin-2-yl)-1,2,3,4,8,9-hexahydropyrido[4′,3′:4,5]imidazo[1,2-a]pyrazine-7(6H)-carboxylate] returned an IC50 of 77 nM.
For `O=C(COc1cccnc1C(F)(F)F)N1CCc2nc3n(c2C1c1ncc(C2CC2)cc1F)CCNC3` (stereo not drawn) [Example 5.4.2, 1-(1-(5-cyclopropyl-3-fluoropyridin-2-yl)-3,4,6,7,8,9-hexahydropyrido[4′,3′:4,5]imidazo[1,2-a]pyrazin-2(1H)-yl)-2-((2-(trifluoromethyl)pyridin-3-yl)oxy)ethanone], the IC50 turned out to be 456 nM.
On the same count and under the same terms, with `O=C(COc1ccc(N2CCOCC2)nc1Cl)N1CCc2nc3n(c2C1c1ncc(C2CC2)cc1F)CCNC3` (stereo not drawn) [Example 5.4.3, 2-((2-chloro-6-morpholinopyridin-3-yl)oxy)-1-(1-(5-cyclopropyl-3-fluoropyridin-2-yl)-3,4,6,7,8,9-hexahydropyrido[4′,3′:4,5]imidazo[1,2-a]pyrazin-2(1H)-yl)ethanone] the figure was 20 nM.
The same measure, in the same setting: for `CCc1cc(F)ccc1OCC(=O)N1CCc2nc3n(c2C1c1ncc(C2CC2)cc1F)CCNC3` (stereo not drawn) [Example 5.4.4, 1-(1-(5-cyclopropyl-3-fluoropyridin-2-yl)-3,4,6,7,8,9-hexahydropyrido[4′,3′:4,5]imidazo[1,2-a]pyrazin-2(1H)-yl)-2-(2-ethyl-4-fluorophenoxy)ethanone] the value was 329 nM; for `CCc1cc(Cl)ccc1OCC(=O)N1CCc2nc3n(c2C1c1ncc(C2CC2)cc1F)CCNC3` (stereo not drawn) [Example 5.4.5, 2-(4-chloro-2-ethylphenoxy)-1-(1-(5-cyclopropyl-3-fluoropyridin-2-yl)-3,4,6,7,8,9-hexahydropyrido[4′,3′:4,5]imidazo[1,2-a]pyrazin-2(1H)-yl)ethanone], 143 nM.
Same read-out and setting: for `CC(=O)N1CCn2c(nc3c2C(c2ncc(C4CC4)cc2F)N(C(=O)COc2ccc(N4CCOCC4)nc2Cl)CC3)C1` (stereo not drawn) [Example 5.4.6, 1-(7-acetyl-1-(5-cyclopropyl-3-fluoropyridin-2-yl)-3,4,6,7,8,9-hexahydropyrido[4′,3′:4,5]imidazo[1,2-a]pyrazin-2(1H)-yl)-2-((2-chloro-6-morpholinopyridin-3-yl)oxy)ethanone] the value was 9 nM; for `CC(=O)N1CCn2c(nc3c2C(c2ncc(C4CC4)cc2F)N(C(=O)COc2cc(F)cnc2Cl)CC3)C1` (stereo not drawn) [Example 5.4.7, 1-(7-acetyl-1-(5-cyclopropyl-3-fluoropyridin-2-yl)-3,4,6,7,8,9-hexahydropyrido[4′,3′:4,5]imidazo[1,2-a]pyrazin-2(1H)-yl)-2-((2-chloro-5-fluoropyridin-3-yl)oxy)ethanone], 431 nM.
As for `CC(=O)N1CCn2c(nc3c2C(c2ncc(C4CC4)cc2F)N(C(=O)COc2ccc(N4CCOCC4)nc2F)CC3)C1` (stereo not drawn) [Example 5.4.8, 1-(7-acetyl-1-(5-cyclopropyl-3-fluoropyridin-2-yl)-3,4,6,7,8,9-hexahydropyrido[4′,3′:4,5]imidazo[1,2-a]pyrazin-2(1H)-yl)-2-((2-fluoro-6-morpholinopyridin-3-yl)oxy)ethanone], it took 91 nM to reach half-maximal inhibition (IC50).
Same read-out and setting: for `CC(=O)N1CCn2c(nc3c2C(c2ncc(C4CC4)cc2F)N(C(=O)COc2cc(F)c(N4CCOCC4)nc2Cl)CC3)C1` (stereo not drawn) [Example 5.4.9, 1-(7-acetyl-1-(5-cyclopropyl-3-fluoropyridin-2-yl)-3,4,6,7,8,9-hexahydropyrido[4′,3′:4,5]imidazo[1,2-a]pyrazin-2(1H)-yl)-2-((2-chloro-5-fluoro-6-morpholinopyridin-3-yl)oxy)ethanone] the value was 15 nM; for `COC(=O)c1csc(C2c3c(nc4n3CCN(C(C)=O)C4)CCN2C(=O)COc2ccc(N3CCOCC3)nc2Cl)c1` (stereo not drawn) [Example 5.5.1, methyl 5-(7-acetyl-2-(2-((2-chloro-6-morpholinopyridin-3-yl)oxy)acetyl)-1,2,3,4,6,7,8,9-octahydropyrido[4′,3′:4,5]imidazo[1,2-a]pyrazin-1-yl)thiophene-3-carboxylate], 5 nM; for `CN(C)c1ncc(C2c3c(nc4n3CCNC4)CCN2C(=O)COc2ccc(N3CCOCC3)nc2Cl)s1` (stereo not drawn) [Example 5.6.1, 2-((2-chloro-6-morpholinopyridin-3-yl)oxy)-1-(1-(2-(dimethylamino)thiazol-5-yl)-3,4,6,7,8,9-hexahydropyrido[4′,3′:4,5]imidazo[1,2-a]pyrazin-2(1H)-yl)ethanone], 415 nM.
On the same count and under the same terms, with `CC(=O)N1CCn2c(nc3c2C(c2cnc(N(C)C)s2)N(C(=O)COc2ccc(N4CCOCC4)nc2Cl)CC3)C1` (stereo not drawn) [Example 5.6.2, 1-(7-acetyl-1-(2-(dimethylamino)thiazol-5-yl)-3,4,6,7,8,9-hexahydropyrido[4′,3′:4,5]imidazo[1,2-a]pyrazin-2(1H)-yl)-2-((2-chloro-6-morpholinopyridin-3-yl)oxy)ethanone] the figure was 37 nM.
On to `CC(=O)N1CCn2c(nc3c2C(c2sc(C(=O)N(C)C)cc2F)N(C(=O)COc2ccc(C(=O)N(C)C)nc2Cl)CC3)C1` (stereo not drawn) [Example 5.7.1, 5-(2-(7-acetyl-1-(5-(dimethylcarbamoyl)-3-fluorothiophen-2-yl)-3,4,6,7,8,9-hexahydropyrido[4′,3′:4,5]imidazo[1,2-a]pyrazin-2(1H)-yl)-2-oxoethoxy)-6-chloro-N,N-dimethylpicolinamide], for which 27 nM corresponded to half-maximal inhibition (IC50).
Same read-out and setting: with `CC(=O)N1CCn2c(nc3c2C(c2sc(C(=O)N(C)C)cc2F)N(C(=O)COc2ccc(N4CCOCC4)nc2Cl)CC3)C1` (stereo not drawn) [Example 5.7.2, 5-(7-acetyl-2-(2-((2-chloro-6-morpholinopyridin-3-yl)oxy)acetyl)-1,2,3,4,6,7,8,9-octahydropyrido[4′,3′:4,5]imidazo[1,2-a]pyrazin-1-yl)-4-fluoro-N,N-dimethylthiophene-2-carboxamide] the figure was 6 nM; with `CC(=O)N1CCn2c(nc3c2C(c2ncc(C)cc2F)N(C(=O)COc2ccc(N4CCOCC4)nc2Cl)CC3)C1` (stereo not drawn) [Example 5.8.1, 1-(7-acetyl-1-(3-fluoro-5-methylpyridin-2-yl)-3,4,6,7,8,9-hexahydropyrido[4′,3′:4,5]imidazo[1,2-a]pyrazin-2(1H)-yl)-2-((2-chloro-6-morpholinopyridin-3-yl)oxy)ethanone], 11 nM; with `CC(=O)N1CCn2c(nc3c2C(c2ncc(C)cc2F)N(C(=O)COc2ccc(N4CC(F)(F)C4)nc2Cl)CC3)C1` (stereo not drawn) [Example 5.8.2, 1-(7-acetyl-1-(3-fluoro-5-methylpyridin-2-yl)-3,4,6,7,8,9-hexahydropyrido[4′,3′:4,5]imidazo[1,2-a]pyrazin-2(1H)-yl)-2-((2-chloro-6-(3,3-difluoroazetidin-1-yl)pyridin-3-yl)oxy)ethanone], 51 nM.
On the same count and under the same terms, with `CC(=O)N1CCn2c(nc3c2C(c2ncc(Cl)cc2F)N(C(=O)COc2ccc(N4CCOCC4)nc2Cl)CC3)C1` (stereo not drawn) [Example 5.9.1, 1-(7-acetyl-1-(5-chloro-3-fluoropyridin-2-yl)-3,4,6,7,8,9-hexahydropyrido[4′,3′:4,5]imidazo[1,2-a]pyrazin-2(1H)-yl)-2-((2-chloro-6-morpholinopyridin-3-yl)oxy)ethanone] the figure was 8 nM; with `CC(=O)N1CCn2c(nc3c2C(c2ncccc2F)N(C(=O)COc2ccc(N4CCOCC4)nc2Cl)CC3)C1` (stereo not drawn) [Example 5.10.1, 1-(7-acetyl-1-(3-fluoropyridin-2-yl)-3,4,6,7,8,9-hexahydropyrido[4′,3′:4,5]imidazo[1,2-a]pyrazin-2(1H)-yl)-2-((2-chloro-6-morpholinopyridin-3-yl)oxy)ethanone], 14 nM.
The same measure, in the same setting: for `CCNC(=O)Nc1nc(C2c3c(nc4n3CCN(C(C)=O)C4)CCN2C(=O)COc2ccc(N3CCOCC3)nc2Cl)cs1` (stereo not drawn) [Example 5.11.1, 1-(4-(7-acetyl-2-(2-((2-chloro-6-morpholinopyridin-3-yl)oxy)acetyl)-1,2,3,4,6,7,8,9-octahydropyrido[4′,3′:4,5]imidazo[1,2-a]pyrazin-1-yl)thiazol-2-yl)-3-ethylurea] the value was 100 nM; for `Cc1ccc(C2c3c(nc4n3CCN(C(=O)OC(C)(C)C)C4)CCN2C(=O)COc2ccc(CN3CCOCC3)cc2Cl)c(F)c1` (stereo not drawn) [Example 5.12.1, tert-butyl 2-(2-(2-chloro-4-(morpholinomethyl)phenoxy)acetyl)-1-(2-fluoro-4-methylphenyl)-1,2,3,4,8,9-hexahydropyrido[4′,3′:4,5]imidazo[1,2-a]pyrazine-7(6H)-carboxylate], 310 nM.

Still in this test, the particulars now being: Table 2.
In turn, `CC(=O)N1CCn2c(nc3c2C(c2cc(C(=O)N(C)C)cs2)N(C(=O)COc2ccc(N4CCOCC4)nc2Cl)CC3)C1` (stereo not drawn) [Example 5.3.2, 5-(7-Acetyl-2-(2-((2-chloro-6-morpholinopyridin-3-yl)oxy)acetyl)-1,2,3,4,6,7,8,9-octahydropyrido[4′,3′:4,5]imidazo[1,2-a]pyrazin-1-yl)-N,N-dimethylthiophene-3-carboxamide] gave an IC50 of 35 nM.
